The source of these data is patent US20140371243A1, “MEDICAL USE OF A DPP-4 INHIBITOR” (Boehringer Ingelheim International GmbH, priority 2013, published 2014).

The test system of data set [1] is rat aortic SMC. Put plainly: FBS-induced vascular smooth muscle cell proliferation, BrdU incorporation assay. It counts as cell-based. The following applies: in vitro, 10% FBS for 24 h, 12-h pre-treatment of linagliptin. How it is done:
Rat aortic vascular SMC (VSMC) and mouse aortic VSMC were serum-deprived in Dulbecco's modified Eagle's medium containing 0.1% fetal bovine serum (FBS) for at least 24 h and subjected to mitogenic stimulation with 10% FBS for 24 h with or without 12-h pre-treatment of linagliptin at the indicated concentration BrdU Assay. To evaluate cell proliferation of rat aortic SMC, the bromodeoxyuridine (BrdU) incorporation assay was performed using the Cell Proliferation enzyme-linked immunosorbent assay (ELISA) kit (1647229, Roche Applied Science, Mannheim, Germany) as previously described.

Data set [2] can be described thus: Plasma levels of linagliptin in mice fed linagliptin in chow. It counts as in vivo, C57BL/6 mice. The settings on record: 0.083 g/kg chow, corresponding to oral dose of 3 mg/kg/d. From the text: (§1) 6-week-old male C57BL/6 mice were purchased and were housed in a polycarbonate cage with a wooden chip mat on the floor; water was available ad libitum. C57BL/6 mice were divided into 2 groups: control (n=14) and linagliptin-treated (n=14). At age 7 weeks, control mice were fed normal chow (22.6% protein, 53.8% carbohydrate, 5.6% fat, 6.6% mineral and vitamin mixture, and 3.3% fiber; total: 356 kcal/100 g) with vehicle; linagliptin-treated mice were fed normal chow with linagliptin (0.083 g/kg chow, which results in mean plasma levels of 50-150 nM, corresponding to an oral dose of 3 mg/kg/d). The animal room was kept on a 12-h light/dark cycle at a constant temperature (22±1° C.) with relative humidity of 55±5% throughout the experimental period. Endothelial denudation injuries were induced in the femoral artery at age 8 weeks, followed by evaluation of neointimal formation at age 12 weeks.

Data set [3] concerns active GLP-1. Put plainly: Serum active GLP-1 concentration (ELISA) in non-diabetic mice. It counts as in vivo, C57BL/6 mice. The settings on record: linagliptin vs. control, 0.083 g/kg chow (3 mg/kg/d oral).
From the text: as §1

Data set [4] is described as follows: Body weight and blood glucose in non-diabetic mice. It counts as in vivo, C57BL/6 mice. The following applies: linagliptin vs. control, 0.083 g/kg chow (3 mg/kg/d oral).
From the text: as §1

Data set [5] has as its system femoral arteries after vascular injury. The data set can be described thus: Guidewire-induced femoral artery endothelial denudation injury, neointima formation (tissue analysis, elastic staining). It counts as in vivo, C57BL/6 mice. The following applies: non-diabetic mice, femoral artery guide wire injury, 4 weeks after injury, 0.083 g/kg chow (3 mg/kg/d oral).
From the text: as §1, with “weeks. Mouse femoral artery endothelial denudation injury was induced in C57BL/6 mice in the control and linagliptin groups at age 8 weeks, as previously described. […] Serial sections of 1.5 mm proximal region from the incision site for the wire insertion were evaluated by staining with Elastica van Gieson stain kit (4033-4037, Muto Pure Chemicals Co., Tokyo, Japan) to visualize the internal elastic lamina.” for “weeks.”

As to `CC#CCn1c(N2CCC[C@@H](N)C2)nc2c1c(=O)n(Cc1nc(C)c3ccccc3n1)c(=O)n2C` [Linagliptin, 1-[(4-methyl-quinazolin-2-yl)methyl]-3-methyl-7-(2-butyn-1-yl)-8-(3-(R)-amino-piperidin-1-yl)-xanthine], the “FBS-induced vascular smooth muscle (SMC) proliferation (BrdU assay)” value in data set [1] was “reduces”. Moreover, in data set [2], the mean plasma levels was in the range of 50 to 150 nM. Further, the “serum active GLP-1 concentration (ELISA)” value in data set [3] was “increases”. Also, in data set [4], the blood glucose result was “does not change” and the body weight result is recorded as “does not change”. Besides, the “neointima formation after vascular injury (intima area, media area, intima/media ratio)” value in data set [5] was “attenuates”.
